Results on 19 molecules are retold here after US12692249B2, “WDR5 inhibitors and modulators” (Vanderbilt University, priority 2019, dated 2026).

The term Ki denotes the dissociation constant of the complex between target and ligand, obtained from inhibition or displacement.

For test [1], the system named is MV4:11 human cancer cell lines. The test is described as follows: Cellular viability / anti-proliferative assay, CellTiter-Glo, 5 day protocol. The format is cell-based. The settings on record: Homo sapiens, MV4-11, 120 h, MV4:11 cells; 5 day incubation; CellTiter-Glo; mean of at least two replicates; read-out: GI50 on cellular proliferation of MV4:11 human cancer cell lines. On the procedure: Cellular Viability of Human Tumor Cell Lines
Anti-proliferative activity using MLL-harboring cell lines. MV-4-11 and K562 cells are grown in IMDM media supplemented with 10% FBS and 1% penicillin/streptomycin, Molm-13 cells are cultured in RPMI-1640 media supplemented with 10% FBS and 1% penicillin/streptomycin. Viability assays are performed by dispensing 200 cells at 7200 cells/mL into each well of an opaque 384-well plate and adding compounds at the indicated concentrations in a final volume, of 32 μL. and a final concentration of DMSO of 0.3% for all samples. A certain range of compound concentrations is made through a series of 2-fold dilutions starting 30 μM at the highest, total 22 dilutions. After a set incubation period, 5 day protocol, the viability of cells in each well is assessed using the CellTiter-Glo assay (Promega), read on a 96 Microplane Luminometer (Cytation 3, BioTek). Serial dilutions of each cell type are performed in all assays to generate standard curves and the final densities of cells are determined within the dynamic range of the instrument. GI50 values are calculated based on XLfit software (IDBS, Guildford, UK) with Sigmoidal Dose-Response Model. Each compound is tested in minimum of two replicates. Data are expressed as mean.
A general note: Cellular ATP, detected with luciferase, serves as a proxy for viable cell number.

For another test, the target named is WDR5 (Homo sapiens, UniProt P61964). The test is described as follows: TR-FRET competition binding assay, displacement of 10mer-Thr-FAM MLL peptide probe from His-tagged WDR5. Particulars: WDR5-His tag (residues 24-334) 2 nM; 10mer-Thr-FAM 150 nM; 60 min, room temperature; read-out: Ki for Inhibition of WDR5 by TR-FRET assay. On the procedure: Time Resolved-Fluorescence Energy Transfer Competition Assay […] Excess 10mer-Thr-FAM probe was utilized with His-tagged WDR5 in conjunction with a commercial anti-His antibody containing a Terbium label. The LanthaScreenTM Elite Tb-anti-HIS Antibody from ThermoFisher Scientific was used for this purpose. […] The 10mer-Thr-FAM probe when bound to WDR5 will undergo a FRET interaction with the Tb-anti-HIS and emit at 520 nm. […] WDR[…] 10[…] used at 150 nM. […] A source plate is prepared using an Echo Liquid Handler, which distributes the compounds to the assay plate (white, flat-bottom; OptiPlate) in a 10-point, 5-fold dilution schemes with a top concentration of 5 μM, in a final volume of 20 μL. […] The final DMSO concentration in each well of the assay plate is 1% or lower. The plate is covered, shielded from light, and incubated for 60 minutes at room temperature with rocking. 10mer-Thr-FAM and Anti-His terbium antibody fluorescence is then measured on a Biotek Cytation 3 at excitation wavelength of 340 nm, and emission wavelengths of 495 nm and 520 nm. […] TR-FRET signal is plotted and IC50 and Ki values are calculated according to the formula of Wang Z. FEBS Lett (1996) 3, 245. Ki=[I]50/([L]50/Kd+[P]0/Kd+1) where [I]50 is the concentration of the free inhibitor at 50% inhibition, [L]50 is the concentration of the free labeled ligand at 50% inhibition, [P]0 is the concentration of the free protein at 0% inhibition, Kd represents the dissociation constant of the FITC-MLL or 10mer-Thr-FAM probe for WDR5. Total fluorescence is also measured, to rule out compounds that are inherently fluorescent or able to act as quenchers in the assay. TR-FRET Binding Assay

Turning to `Cc1nccn1Cc1cc2c(c(-c3cn(C)nc3C(F)(F)F)c1)CCN(c1cccc3ccccc13)C2=O` [Example 1, 7-((2-Methyl-1H-imidazol-1-yl)methyl)-5-(1-methyl-3-(trifluoromethyl)-1H-pyrazol-4-yl)-2-(naphthalen-1-yl)-3,4-dihydroisoquinolin-1(2H)-one], the GI50 in test [1] is 1540 nM. Further, the inhibitory constant (Ki) on WDR5 was determined as 0.46 nM.

As for `Cc1nccn1Cc1cc2c(c(-c3cn(C)nc3C(F)(F)F)c1)CCN(c1ccnc3cc(Cl)ccc13)C2=O` [Example 2, 2-(7-Chloroquinolin-4-yl)-7-((2-methyl-1H-imidazol-1-yl)methyl)-5-(1-methyl-3-(trifluoromethyl)-1H-pyrazol-4-yl)-3,4-dihydroisoquinolin-1(2H)-one], in test [1], the GI50 stood at 189 nM. In addition, the Ki at WDR5 turned out to be 0.05 nM.

As for `COc1cnc2cccc(N3CCc4c(cc(Cn5ccnc5C)cc4-c4cn(C)nc4C(F)(F)F)C3=O)c2c1` [Example 3, 2-(3-Methoxyquinolin-5-yl)-7-((2-methyl-1H-imidazol-1-yl)methyl)-5-(1-methyl-3-(trifluoromethyl)-1H-pyrazol-4-yl)-3,4-dihydroisoquinolin-1(2H)-one], in test [1], the GI50 amounted to 20 nM. On WDR5, the Ki was under 0.02 nM.

On to `COc1ccc2nccc(N3CCc4c(cc(Cn5ccnc5C)cc4-c4cn(C)nc4C(F)(F)F)C3=O)c2c1` [Example 4, 2-(6-Methoxyquinolin-4-yl)-7-((2-methyl-1H-imidazol-1-yl)methyl)-5-(1-methyl-3-(trifluoromethyl)-1H-pyrazol-4-yl)-3,4-dihydroisoquinolin-1(2H)-one], for which the GI50 in test [1] is under 20 nM. Moreover, on WDR5, the Ki was under 0.02 nM.

Turning to `COc1ccc2ccnc(N3CCc4c(cc(Cn5ccnc5C)cc4-c4cn(C)nc4C(F)(F)F)C3=O)c2c1` [Example 5, 7-Methoxy-7′-((2-methyl-1H-imidazol-1-yl)methyl)-5-(1-methyl-3-(trifluoromethyl)-1H-pyrazol-4-yl)-3′,4-dihydro-1′H-[1,2′-biisoquinolin]-1′-one], the GI50 in test [1] was determined as 83 nM. Also, at WDR5, the Ki worked out at 0.034 nM.

As to `COc1cc2c(N3CCc4c(cc(Cn5ccnc5C)cc4-c4cn(C)nc4C(F)(F)F)C3=O)ccnc2cc1C` [Example 6, 2-(6-Methoxy-7-methylquinolin-4-yl)-7-((2-methyl-1H-imidazol-1-yl)methyl)-5-(1-methyl-3-(trifluoromethyl)-1H-pyrazol-4-yl)-3,4-dihydroisoquinolin-1(2H)-one], the GI50 in test [1] worked out at 32 nM. The Ki at WDR5 amounted to 0.024 nM.

In the case of `COc1cc(C)c2nccc(N3CCc4c(cc(Cn5ccnc5C)cc4-c4cn(C)nc4C(F)(F)F)C3=O)c2c1` [Example 7, 2-(6-Methoxy-8-methylquinolin-4-yl)-7-((2-methyl-1H-imidazol-1-yl)methyl)-5-(1-methyl-3-(trifluoromethyl)-1H-pyrazol-4-yl)-3,4-dihydroisoquinolin-1(2H)-one], in test [1], the GI50 was determined as 29 nM. The Ki on WDR5 amounted to 0.026 nM.

With `COc1ccc2nc(C)cc(N3CCc4c(cc(Cn5ccnc5C)cc4-c4cn(C)nc4C(F)(F)F)C3=O)c2c1` [Example 8, 2-(6-Methoxy-2-methylquinolin-4-yl)-7-((2-methyl-1H-imidazol-1-yl)methyl)-5-(1-methyl-3-(trifluoromethyl)-1H-pyrazol-4-yl)-3,4-dihydroisoquinolin-1(2H)-one], in test [1], the GI50 was under 20 nM. Further, the inhibition constant (Ki) at WDR5 worked out at 0.026 nM.

Take `COc1ccc2ncc(Cl)c(N3CCc4c(cc(Cn5ccnc5C)cc4-c4cn(C)nc4C(F)(F)F)C3=O)c2c1` [Example 9, 2-(3-Chloro-6-methoxyquinolin-4-yl)-7-((2-methyl-1H-imidazol-1-yl)methyl)-5-(1-methyl-3-(trifluoromethyl)-1H-pyrazol-4-yl)-3,4-dihydroisoquinolin-1(2H)-one]: the GI50 in test [1] turned out to be 43 nM. Further, on WDR5, the inhibition constant (Ki) stood at 0.048 nM.

Regarding `Cc1ccc2cncc(N3CCc4c(cc(Cn5ccnc5C)cc4-c4cn(C)nc4C(F)(F)F)C3=O)c2c1` [Example 10, 6′-Methyl-7-((2-methyl-1H-imidazol-1-yl)methyl)-5-(1-methyl-3-(trifluoromethyl)-1H-pyrazol-4-yl)-3,4-dihydro-1H-[2,4′-biisoquinolin]-1-one], the GI50 in test [1] is under 20 nM. For the same molecule, the Ki on WDR5 is 0.029 nM.

In the case of `COc1ccc(N2CCc3c(cc(Cn4ccnc4C)cc3-c3cn(C)nc3C(F)(F)F)C2=O)c2cc(C)cnc12` [Example 11, 2-(8-Methoxy-3-methylquinolin-5-yl)-7-((2-methyl-1H-imidazol-1-yl)methyl)-5-(1-methyl-3-(trifluoromethyl)-1H-pyrazol-4-yl)-3,4-dihydroisoquinolin-1(2H)-one], the GI50 in test [1] was 3890 nM. Also, on WDR5, the Ki turned out to be 0.035 nM.

With `COc1cnc2cccc(N3CCc4c(cc(Cn5ccnc5)cc4-c4cn(C)nc4C(F)(F)F)C3=O)c2c1` [Example 12, 7-((1H-Imidazol-1-yl)methyl)-2-(3-methoxyquinolin-5-yl)-5-(1-methyl-3-(trifluoromethyl)-1H-pyrazol-4-yl)-3,4-dihydroisoquinolin-1(2H)-one], the GI50 in test [1] came to 34 nM. Moreover, at WDR5, the Ki was under 0.02 nM.

With `COc1ccc2nccc(N3CCc4c(cc(Cn5ccnc5)cc4-c4cn(C)nc4C(F)(F)F)C3=O)c2c1` [Example 13, 7-((1H-Imidazol-1-yl)methyl)-2-(6-methoxyquinolin-4-yl)-5-(1-methyl-3-(trifluoromethyl)-1H-pyrazol-4-yl)-3,4-dihydroisoquinolin-1(2H)-one], the GI50 in test [1] was found to be 45 nM. For the same molecule, the Ki at WDR5 is under 0.02 nM.

With `Cc1ccc2nccc(N3CCc4c(cc(Cn5ccnc5)cc4-c4cn(C)nc4C(F)(F)F)C3=O)c2c1` [Example 15, 7-((1H-Imidazol-1-yl)methyl)-5-(1-methyl-3-(trifluoromethyl)-1H-pyrazol-4-yl)-2-(6-methylquinolin-4-yl)-3,4-dihydroisoquinolin-1(2H)-one], in test [1], the GI50 amounted to 64 nM. Also, the Ki at WDR5 was 0.026 nM.

For the molecule `Cc1ccc2cncc(N3CCc4c(cc(Cn5ccnc5)cc4-c4cn(C)nc4C(F)(F)F)C3=O)c2c1` [Example 16, 7-((1H-Imidazol-1-yl)methyl)-6′-methyl-5-(1-methyl-3-(trifluoromethyl)-1H-pyrazol-4-yl)-3,4-dihydro-1-[2,4′-biisoquinolin]-1-one], the GI50 in test [1] stood at 42 nM. The Ki on WDR5 turned out to be 0.028 nM.

Regarding `COc1cc(OC)c2nccc(N3CCc4c(cc(Cn5ccnc5)cc4-c4cn(C)nc4C(F)(F)F)C3=O)c2c1` [Example 17, 7-((1H-Imidazol-1-yl)methyl)-2-(6,8-dimethoxyquinolin-4-yl)-5-(1-methyl-3-(trifluoromethyl)-1H-pyrazol-4-yl)-3,4-dihydroisoquinolin-1(2H)-one], in test [1], the GI50 was under 20 nM. Also, the Ki on WDR5 turned out to be 0.025 nM.

As to `COc1cc(OC)c2nc(C)cc(N3CCc4c(cc(Cn5ccnc5)cc4-c4cn(C)nc4C(F)(F)F)C3=O)c2c1` [Example 18, 7-((1H-Imidazol-1-yl)methyl)-2-(6,8-dimethoxy-2-methylquinolin-4-yl)-5-(1-methyl-3-(trifluoromethyl)-1H-pyrazol-4-yl)-3,4-dihydroisoquinolin-1(2H)-one], the GI50 in test [1] is under 20 nM. Also, at WDR5, the Ki is under 0.02 nM.

For the molecule `COc1cc(C)cc2c(N3CCc4c(cc(Cn5ccnc5)cc4-c4cn(C)nc4C(F)(F)F)C3=O)ccnc12` [Example 19, 7-((1H-Imidazol-1-yl)methyl)-2-(8-methoxy-6-methylquinolin-4-yl)-5-(1-methyl-3-(trifluoromethyl)-1H-pyrazol-4-yl)-3,4-dihydroisoquinolin-1(2H)-one], in test [1], the GI50 came to 26 nM. Besides, the Ki at WDR5 was 0.02 nM.

For the molecule `CCc1cc(NC(C)=O)c2nccc(N3CCc4c(cc(Cn5ccnc5)cc4-c4cn(C)nc4C(F)(F)F)C3=O)c2c1` [Example 231, N-(4-(7-((1H-Imidazol-1-yl)methyl)-5-(1-methyl-3-(trifluoromethyl)-1H-pyrazol-4-yl)-1-oxo-3,4-dihydroisoquinolin-2(1H)-yl)-6-ethylquinolin-8-yl)acetamide], the Ki at WDR5 is under 0.02 nM.
